One compound from patent US8282916B2, “Tumor therapy with replication competent sindbis viral vectors” (New York University, priority 2008, dated 2012) can be followed below.

Entries after “also recorded” stand apart in the source; their conditions may differ.

This test relates to ES-2/Fluc ovarian cancer cells. Briefly: ES-2/Fluc ovarian cancer model in SCID mice: whole body bioluminescence after daily i.p. RD-Sindbis/tk and GCV. The class given is in vivo. From the text: In the example below, SCID mice were intraperitoneally implanted with ES2 human ovarian cancer cells. In order to track and monitor disease progression, the ES2 cells were genetically engineered to express a firefly luciferase gene for bioluminescent imaging. Therefore, the bioluminescent signal intensity is proportional to the tumor load in these animals (FIG. 3B). Tumor-bearing mice were either mock treated or received daily treatments with a conventional RD-Sindbis/HSVtk vector.
An ES-2/Fluc ovarian cancer model was used to test if the HSVtk suicide gene enhanced the therapeutic effects of Sindbis vectors. […] SCID mice were inoculated with ES-2/Fluc on day 0. Daily GDEPT treatments involving i.p. injections of RD-Sindbis/tk and GCV (25 mg/Kg of body weight) were started on day 3. The Sindbis/tk −GCV group (n=5) received Sindbis/tk treatments but no GCV. The Sindbis/tk +GCV group (n=5) received both Sindbis/tk and GCV treatments. The Control group (n=5) was neither treated with Sindbis/tk nor GCV. The Control +GCV group (n=5) received no Sindbis/tk but was treated with GCV. Disease progression was monitored and the whole body photon counts were determined using the IVIS® system on days 1, 3, 6, 8, 12 and 14.

In the case of `Nc1nc(O)c2ncn(COC(CO)CO)c2n1` [GCV, ganciclovir], the “effect of prodrug on tumor growth / tumor killing together with vector” value (GCV 25 mg/Kg daily i.p. together with daily i.p. RD-Sindbis/HSVtk from day 3) was “significantly improved anti-tumor efficacy; also recorded: dramatically enhanced the Sindbis HSVtk vector treatments and suppressed tumor growth; also recorded: enhanced the killing of Sindbis/tk-infected ES-2/Fluc cells in vivo”. For the same compound, the “therapeutic effect on tumor loading” value (GCV 25 mg/Kg daily i.p. without HSVtk expression (no Sindbis/tk)) is on record as “no therapeutic effect”.
